In paper PMC3169616, “Unique Residues Involved in Activation of the Multitasking Protease/Chaperone HtrA from Chlamydia trachomatis” (PLoS ONE, 2011):
No end group written: not given here. *: point of attachment. pNA = O=[N+]([O-])c1ccc(N*)cc1

Experiments:
CtHtrA [1] = biological target: T1, CtHtrA (Chlamydia trachomatis serovar D, UniProt P18584); test: Protease assay and kinetic analysis with pNA-labelled peptide substrates; assay type: biochemical; conditions: pNA peptide as substrate, absorbance 405 nm, 37°C; for Vmax: reading every 10 s for 30 min
T1 construct: His-tag; made in house; host or cells: E. coli BL21 (DE3), plasmid pETHtrA
T1 sequence (P18584 17-497): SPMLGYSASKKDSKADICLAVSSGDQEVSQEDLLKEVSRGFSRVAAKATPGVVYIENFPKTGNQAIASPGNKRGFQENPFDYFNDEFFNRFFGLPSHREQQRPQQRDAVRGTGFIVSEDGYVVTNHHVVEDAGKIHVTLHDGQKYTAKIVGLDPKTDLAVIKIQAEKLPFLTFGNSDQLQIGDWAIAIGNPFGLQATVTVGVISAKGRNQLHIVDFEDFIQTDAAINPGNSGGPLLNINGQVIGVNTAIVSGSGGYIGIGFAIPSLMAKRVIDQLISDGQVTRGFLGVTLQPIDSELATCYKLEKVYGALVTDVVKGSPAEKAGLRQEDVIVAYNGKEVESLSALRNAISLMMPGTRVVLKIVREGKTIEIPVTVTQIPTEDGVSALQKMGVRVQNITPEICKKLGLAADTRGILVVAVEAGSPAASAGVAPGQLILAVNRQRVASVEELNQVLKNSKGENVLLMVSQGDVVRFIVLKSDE
Procedure: A series of peptide substrates were then designed based on the cleavage sites previously identified in ß-casein [3], PICS results, previously published substrates for E. coli DegP [22], and the REPLi library screening results. These peptides were assayed against CtHtrA and kinetic analysis was conducted (Table 2). […] Generally, peptides with only 4 residues or less were not cleaved. […] The preference for K at P3 implies a salt bridge may be involved in substrate coordination in the CtHtrA active site in the substrate pocket or subsite S3. In a direct comparison between MFRLI-pNA and MFQLI-pNA, R was clearly the most preferred. […] The Km for each of these, however, was at least an order of magnitude higher than the Km for MFKLI-pNa. The results from individually synthesised peptides (Table 2) and the peptides sourced from the REPLi library (Table 1) were consistent in that non-polar sequences are most preferred. […] (Fig. S3).
The purified recombinant protein was examined by Coomassie stained polyacrylamide gels and activity was checked using ß-casein cleavage assays prior to use in peptide assays. Briefly, this involved incubating 2 µg of the protease with 10 µg of ß-casein in 50 mM Tris pH 7.0, 20 mM MgCl2 for 2 h prior to examining the assays by SDS PAGE (ß-casein and protease only controls were always conducted). Protease assays using peptides were conducted using custom synthesised peptides (Mimotopes). The peptides were purified to 95% purity (or greater) and were typically resuspended in 50% isopropanol, although some peptides required 100% DMSO. Protease assays using pNA labelled peptides were conducted using the xMARK Microplate spectrophotometer (Bio-Rad) at 405 nm, incubated at 37°C, with a reading taken every 10 s for 30 min. The maximum slope over a minimum of 8 readings was used for the data analysis. Other peptides were labelled with 7-methoxycoumarin-4-acetic acid (MCA, fluorophore) and 2,4-dinitrophenyl (DNP, quencher). The protease assays using these peptides were conducted in black plates at 37°C using the POLARstar Optima (BMG Labtech). The assays were excited at 340 nm and emission was detected at 405 nm with a gain of 1000, the assays were monitored every 20 s or at the minimum cycle time for up to 40 min. The Omega software was used to calculate the maximum rate from a minimum of 6 time points for each assay. The REPLi library of peptides (Mimotopes, Melbourne, Australia) was also assayed with CtHtrA in the POLARstar Optima using similar assay conditions to those described above. Substrate only and protease only assay controls were conducted for every experiment and protease assays were typically conducted in triplicate on at least two different days. The assay results shown are the maximal rate observed from three or more different assays and adjusted for protein concentration. The assay results shown for the fluorescent compounds have been normalised for the amount of fluorescent emission detected using a standard curve of known concentrations of the MCA fluorophore under the identical assay conditions. All of the peptides used in this work were synthesised commercially to 95% purity or greater (Mimotopes, Melbourne, Australia). All protease assays were conducted minimally in duplicate on three separate occasions.

CtHtrA [2] = biological target: T1, CtHtrA; test: MS and MS-MS analysis of peptide cleavage products; assay type: biochemical; conditions: peptide 150 µM digested with CtHtrA (71 µg); sites MCA-ENLH↓LPLPI↓IF-DNP
Procedure: Bcas1 and Act1 peptides (150 µM concentration) digested with CtHtrA (71 µg) were analysed by online LC/MS/MS using a QStar Pulsar I (Applied Biosystems) in […] mode. Data acquired were converted into mzXML format using proteowizard (v2) and searched using ([…], the global proteome machine, ftp://ftp.thegpm.org/fasta/cRAP), against CtHtrA and Act1 and Bcas1 peptide sequences with an included decoy database of the reverse sequence for each protein. The search also included potential mass modifications accounting for the additional […] moieties on the N and C peptide termini, respectively. Matches with an expected ratio of <1 were considered identified. All raw data and mass spectra can be made available on request.

CtHtrA [3] = biological target: T1, CtHtrA; test: Oligomerisation assay (glutaraldehyde crosslinking, 3-8% TrisAcetate gel, silver stain); assay type: biochemical; conditions: wild type CtHtrA 2 mg/ml, 100 mM sodium phosphate pH 7.0, 10 mins at 37°C, 0.5% glutaraldehyde fixation
Procedure: (§1) E. coli DegP proteolysis activation involves the transition from resting hexamers via trimers to 12- and 24-mers following the peptide activator binding to the PDZ1 binding cleft. CtHtrA oligomer formation induced by Act1 addition was examined after incubation for 10 mins at 37°C. The wild type and mutant proteins were incubated with either the ß-casein based activator peptide (Act1), or with whole insulin (intact), or in the absence of any activator as a control. CtHtrA incubated in the absence of any added activators formed 24-mers with some hexamers detected after 10 mins (Fig. 5). […] The R299W mutant was present as hexamer and 24-mer in the control with no activator. […] The L302N mutant was not detected in any higher oligomeric form under any conditions. L302N was detected as faint hexamer and trimer but mostly monomer under all tested conditions (not visible on these gels). […] I365D was detected as hexamers, trimers, 12-mers, and some 24-mers when incubated in the absence of activators.
(§2) The oligomerisation of HtrA into 12- and 24-mer complexes has been independently detected for E. coli HtrA (DegP). The oligomerisation of HtrA (DegP) was triggered by peptides from digested ß-casein [18]. Assays to detect whether CtHtrA and site directed mutant protein oligomerisation was triggered by substrates were conducted essentially as previously described (Merdanovic et al., 2010). Briefly, 2 mg/ml protein solutions in 100 mM sodium phosphate buffer pH 7.0 were pre-incubated to the required temperature. The ligands (activator peptide, or insulin) were added and at 10 min, and the proteins were fixed using 0.5% glutaraldehyde. Samples were fixed at room temperature for 2 min prior to addition of 1 M Tris pH 7.5 to remove any excess glutaraldehyde. Samples were incubated for another 10 min at room temperature prior to addition of SDS PAGE reducing loading buffer. The protein samples were examined on 3–8% TrisAcetate gradient polyacrylamide gels (Novex, Invitrogen) by silver staining. The proteins used in this study were not initially denatured by treatment with urea as, the refolding, formation of oligomers, and protease activity was never successfully detected with denatured CtHtrA. All assays were conducted in duplicate on three separate occasions with at least two gels of each experiment completed for each assay condition.

CtHtrA R299W = test: Oligomerisation assay, mutated protein; assay type: biochemical, Chlamydia trachomatis; conditions: R299W mutant, 10 mins incubation
Procedure: as §1, §2

CtHtrA R373A = test: Oligomerisation assay, mutated protein; assay type: biochemical, Chlamydia trachomatis; conditions: R373A mutant, 10 mins incubation
Procedure: as §1, §2

CtHtrA R373A/R299W = test: Oligomerisation assay, mutated protein; assay type: biochemical, Chlamydia trachomatis; conditions: R373A/R299W mutant, 10 mins incubation
Text: This activation was very similar to that observed for CtHtrA, and was the only condition during which any of the mutated proteins oligomerised in a similar profile to CtHtrA.
as §2, with “All assays were conducted in duplicate on three separate occasions with at least two gels of each experiment completed for each assay condition.” left out

CtHtrA [4] = biological target: T1, CtHtrA; test: Activation of CtHtrA cleavage of Bcas1 substrate by added activator; assay type: biochemical; conditions: substrate Bcas1 (MCA-ENLHLPLPIIF-DNP), fluorimetric, 37°C
Procedure: To determine if the addition of a second peptide to the protease assays could activate or increase CtHtrA proteolysis, two activator peptides were tested in the CtHtrA cleavage of the model ß-casein peptide substrate Bcas1. The first was based on the ß-casein C-terminal sequence (Act1: NH2-VLGPVRGPFPIIV-OH) and the second on insulin b chain C-terminal sequence (Act2: NH2-CGELGFFYTP-OH).
Finally, in order to determine if the 24-mer (highest amount with MOMP protein, or Act1), or 12-mer, or both, corresponds to enhanced protease activity, the incubations of CtHtrA and these potential in vivo activators were used for protease assays with the Bcas1 substrate (Fig. 6). […] The presence of the majority of CtHtrA as higher order oligomers correlated with an increased rate of proteolysis for CtHtrA, particularly when these oligomers were predominately 24-mers.
The purified recombinant protein was examined by Coomassie stained polyacrylamide gels and activity was checked using ß-casein cleavage assays prior to use in peptide assays. Briefly, this involved incubating 2 µg of the protease with 10 µg of ß-casein in 50 mM Tris pH 7.0, 20 mM MgCl2 for 2 h prior to examining the assays by SDS PAGE (ß-casein and protease only controls were always conducted). Protease assays using peptides were conducted using custom synthesised peptides (Mimotopes). […] Protease assays using pNA labelled peptides were conducted using the xMARK Microplate spectrophotometer (Bio-Rad) at 405 nm, incubated at 37°C, with a reading taken every 10 s for 30 min. The maximum slope over a minimum of 8 readings was used for the data analysis. […] The assays were excited at 340 nm and emission was detected at 405 nm with a gain of 1000, the assays were monitored every 20 s or at the minimum cycle time for up to 40 min. […] The assay results shown for the fluorescent compounds have been normalised for the amount of fluorescent emission detected using a standard curve of known concentrations of the MCA fluorophore under the identical assay conditions. […]

CtHtrA [5] = biological target: T1, CtHtrA; test: Protease assay with MCA/DNP-labelled fluorimetric peptides (REPLi library); assay type: biochemical; conditions: peptide based on the optimal activity for human HtrA2; data not shown
Text: To further refine the CtHtrA substrate specificity, the REPLi peptide library (Mimotopes, Melbourne) was screened. The REPLi library peptides consist of a randomised tripeptide sequence flanked on either side by two GGG tripeptide sequences. The N-terminus of each peptide was labelled with a 7-methoxycoumarin (MCA) fluorophore, and the C-terminus was labelled with a 2,4-dinitrophenyl (DNP) fluorescent quencher. The peptides were pooled according to structural similarity and selected wells with high activity were then rescreened as individual peptides to identify the peptides cut by CtHtrA (Fig. S2, all wells where CtHtrA activity was observed). […] Cleavage at the glycine or terminal fluorophore or quenchers was never detected for any peptide. […]
The purified recombinant protein was examined by Coomassie stained polyacrylamide gels and activity was checked using ß-casein cleavage assays prior to use in peptide assays. […] Protease assays using pNA labelled peptides were conducted using the xMARK Microplate spectrophotometer (Bio-Rad) at 405 nm, incubated at 37°C, with a reading taken every 10 s for 30 min. The maximum slope over a minimum of 8 readings was used for the data analysis. […] The assays were excited at 340 nm and emission was detected at 405 nm with a gain of 1000, the assays were monitored every 20 s or at the minimum cycle time for up to 40 min. […]

Substance | Kcat/Km (CtHtrA [1]) [M⁻¹ s⁻¹] | Km (CtHtrA [1]) [µM] | Vmax (CtHtrA [1]) | other results
MFRLI-pNA [pNA peptide substrate, P3 modification] | 106.22 | 2910 | 18.53 mM sec^−1, µM CtHtrA^−1 | –
PMFKLI-pNA [pNA peptide substrate, 1 residue less] | 526.7 | 314 | 9.931 mM sec^−1, µM CtHtrA^−1 | –
MFQLI-pNA [pNA peptide substrate, P3 modification] | 21.2 | 141 | 0.1796 mM sec^−1, µM CtHtrA^−1 | –
DPMFKLI-pNA [Model E. coli substrate, I at P1] | – | 527 | 10.340 mM sec^−1, µM CtHtrA^−1 | –
DPMFKQT-pNA [Model E. coli substrate, change P1 and P2] | 542.2 | 9.38 | 0.3165 mM sec^−1, µM CtHtrA^−1 | –
DPMFKLL-pNA [Model E. coli substrate, L at P1] | – | 883 | 3.179 mM sec^−1, µM CtHtrA^−1 | –
MCA-ENLHLPLPIIF-DNP [Bcas1, model ß-casein peptide substrate based on a ß-casein cleavage site] | – | – | – | cleavage sites observed by LC-MS-MS (CtHtrA [2]): Two cleavage sites
DMPFKLT-pNA [Model E. coli substrate, T at P1] | 158.7 | 940 | 8.955 mM sec^−1, µM CtHtrA^−1 | –
DPMFKLP-pNA [Model E. coli substrate, P at P1] | – | 3870 | 2.917 mM sec^−1, µM CtHtrA^−1 | –
MFKLI-pNA | 1084.8 | 62 | 4.046 mM sec^−1, µM CtHtrA^−1 | –
insulin: previously demonstrated in vitro chaperone substrate of CtHtrA [reference compound] | – | – | – | CtHtrA oligomer formation induced by activator (CtHtrA [3]): activated to 24-mers with little hexamer visible; oligomer formation induced by activator (CtHtrA R299W): mainly hexamer; oligomer formation induced by activator (CtHtrA R373A): mainly detected as hexamer; oligomer formation induced by activator (CtHtrA R373A/R299W): did not form a similar profile of oligomers as wild-type CtHtrA
H-LAHMMNCGARMIF-OH [PmpC, C-terminal 13 residues of outer membrane ß-barrel PmpC] | – | – | – | effect of activator on rate of CtHtrA proteolysis of Bcas1 (CtHtrA [4]): did not increase the rate of proteolysis of Bcas1; CtHtrA oligomer formation induced by activator (CtHtrA [3]): activated the formation of 12-mer
H-AESNFKMLEIEAE-OH [CtL0043, C-terminal 13 residues of outer membrane ß-barrel CtL0043] | – | – | – | CtHtrA oligomer formation induced by activator (CtHtrA [3]): activated mainly trimer formation with some 12-mer present
MCA-IRRVSYSF-DNP | – | – | – | viability as substrate for CtHtrA (CtHtrA [5]): not a viable substrate
DPMFKLV-pNA [previously published E. coli DegP substrate [22], reference compound] | 241.2 | 323 | 4.678 mM sec^−1, µM CtHtrA^−1 | –
H-HDVLSPSLDEINVP-OH [PyKinC] | – | – | – | CtHtrA oligomer formation induced by activator (CtHtrA [3]): activated mainly trimer formation with some 12-mer present
